{"source": "patent US12558345B2", "about": "“CHK1/2 inhibitors for use in the treatment of neuroblastomas and/or soft tissue sarcomas” (Eli Lilly and Company, priority 2015, dated 2026)", "key": {"[1]": {"tested_on": "CTG-1006 LMS patient-derived xenograft", "test": "Xenograft Tumor Model CTG-1006", "format": "in vivo, mouse", "details": "comparator day 27, p-value <0.001", "description": "(§1) For all “CTG” models (encompassing human RMS, DSRCT, EWS, OS and LMS patient-derived xenograft models), female NCr nude spontaneous mutant mice (5-8 weeks old, Taconic) are implanted unilaterally in the flank region with tumor fragments harvested from donor animals, each implanted from a specific passage lot.\n(§2) For all “ST” models (encompassing RMS and LMS), patient-derived xenografts are established from viable human tumor tissue and are serially passaged in animals a limited number of times to maintain tumor heterogeneity. In subcutaneous models, athymic nude mice (Crl:NU(NCr)-Foxn1nu) or CB-17 SCID mice (CRL-CB17/Icr-Prkdcscid/IcrIcoCrl) are injected or implanted unilaterally into the flank with tumor fragments harvested from host animals, each implanted from a specific passage lot. For all studies, measure tumor growth and body weight twice per week beginning on the seventh day after implantation. When tumor size reaches 150-300 mm^3, randomize animals and group into groups of 4-7 animals. Prepare test compound in an appropriate vehicle (e.g. vehicle can be 20% Captisol® in sterile water) and administer subcutaneously for three consecutive days followed by a four day dosing holiday and repeat for a minimum of four weeks. Tumor response is determined by tumor volume measurement performed twice per week during the course of treatment."}, "[2]": {"tested_on": "CTG-1213 RMS patient-derived xenograft", "test": "Xenograft Tumor Model CTG-1213", "format": "in vivo, mouse", "protocol": "(§3) The efficacy of 5-(5-(2-(3-aminopropoxy)-6-methoxyphenyl)-1H-pyrazol-3-ylamino)pyrazine-2-carbonitrile methanesulfonic acid monohydrate is measurable in vivo in mouse models of neuroblastomas and human pediatric and adult sarcomas. 5-(5-(2-(3-Aminopropoxy)-6-methoxyphenyl)-1H-pyrazol-3-ylamino)pyrazine-2-carbonitrile methanesulfonic acid monohydrate (10 mg/kg) can be administered subcutaneously to nude mice bearing either cell-derived xenografts (CDX) or patient-derived xenografts (PDX) of human rhabdomyosarcoma, desmoplastic small round cell tumor (DSRCT), osteosarcoma, and Ewing's sarcoma using a 3 day on, 4 day off b.i.d. dosing schedule. Tumor volume and body weight can be measured two times per week. Tumor-specific parameters can be evaluated by immumohistochemistry. […]\n(§4) For all “ST” models (encompassing RMS and LMS), patient-derived xenografts are established from viable human tumor tissue and are serially passaged in animals a limited number of times to maintain tumor heterogeneity. […] Tumor response is determined by tumor volume measurement performed twice per week during the course of treatment."}, "[3]": {"tested_on": "ST0001 LMS patient-derived xenograft", "test": "Xenograft Tumor Model ST0001", "format": "in vivo, mouse", "details": "comparator day 19, p-value 0.247", "protocol": "as §2"}, "[4]": {"tested_on": "ST240 LMS patient-derived xenograft", "test": "Xenograft Tumor Model ST240", "format": "in vivo, mouse", "details": "comparator day 29, p-value 0.022", "protocol": "as §2"}, "[5]": {"tested_on": "CTG-0816 EWS patient-derived xenograft", "test": "Xenograft Tumor Model CTG-0816", "format": "in vivo, mouse", "details": "comparator day 28, p-value 0.069", "protocol": "as §3, §4"}, "[6]": {"tested_on": "CTG-0785 EWS patient-derived xenograft", "test": "Xenograft Tumor Model CTG-0785", "format": "in vivo, mouse", "details": "comparator day 18, p-value 0.052", "protocol": "as §3, §4"}, "[7]": {"tested_on": "Leiomyosarcoma xenograft models", "test": "Sarcoma xenograft models by tumor subtype: Leiomyosarcoma", "format": "in vivo, mouse", "description": "as §1, §2"}, "[8]": {"tested_on": "SJCRH-30 human RMS cancer cell xenograft", "test": "Xenograft Tumor Model SJCRH-30", "format": "in vivo, mouse", "protocol": "(§5) The efficacy of 5-(5-(2-(3-aminopropoxy)-6-methoxyphenyl)-1H-pyrazol-3-ylamino)pyrazine-2-carbonitrile methanesulfonic acid monohydrate is measurable in vivo in mouse models of neuroblastomas and human pediatric and adult sarcomas. 5-(5-(2-(3-Aminopropoxy)-6-methoxyphenyl)-1H-pyrazol-3-ylamino)pyrazine-2-carbonitrile methanesulfonic acid monohydrate (10 mg/kg) can be administered subcutaneously to nude mice bearing either cell-derived xenografts (CDX) or patient-derived xenografts (PDX) of human rhabdomyosarcoma, desmoplastic small round cell tumor (DSRCT), osteosarcoma, and Ewing's sarcoma using a 3 day on, 4 day off b.i.d. dosing schedule. Tumor volume and body weight can be measured two times per week. Tumor-specific parameters can be evaluated by immumohistochemistry.\nExpand human RMS cancer cells SJCRH-30 (St. Jude Children's Research Hospital) in culture, harvest, and inject 5×10^6 cells in 200 μL of HBSS subcutaneously into the right rear flank of female athymic nude mice (20-22 g, Harlan Laboratories). Expand human rhabdomyosarcoma cancer cells RD (ATCC, #CCL-136) in culture, harvest, and inject, 5×10^6 cells in 200 μL of HBSS subcutaneously into the right rear flank of female athymic nude mice (20-22 g, Harlan Laboratories).\nas §2"}, "adult sarcoma models": {"tested_on": "adult sarcoma models", "test": "Adult sarcoma models evaluated in vivo (panel)", "parameters": "species or system mouse", "description": "as §1, §2"}, "[9]": {"tested_on": "Embryonal Rhabdomyosarcoma xenograft models", "test": "Sarcoma xenograft models by tumor subtype: Embryonal Rhabdomyosarcoma", "format": "in vivo, mouse", "details": "age of patients 2-7 years", "protocol": "as §5\nExpand human RMS cancer cells SJCRH-30 (St. Jude Children's Research Hospital) in culture, harvest, and inject 5×10^6 cells in 200 μL of HBSS subcutaneously into the right rear flank of female athymic nude mice (20-22 g, Harlan Laboratories). […]\nas §4"}, "[10]": {"tested_on": "CTG-0242 OS patient-derived xenograft", "test": "Xenograft Tumor Model CTG-0242", "format": "in vivo, mouse", "details": "comparator day 28, p-value 0.012", "protocol": "as §3, §4"}, "[11]": {"tested_on": "Ewing's Sarcoma xenograft models", "test": "Sarcoma xenograft models by tumor subtype: Ewing's Sarcoma", "format": "in vivo, mouse", "details": "age of patients 8-17 years", "protocol": "as §3, §4"}, "[12]": {"tested_on": "HT-29 colon tumor xenograft", "test": "Human Tumor Xenograft Models, with gemcitabine: HT-29", "format": "in vivo, mouse", "protocol": "The ability of CHK1 inhibitors to effect tumor killing can be determined in vivo using the Calu-6 lung and HT-29 colon tumor xenograft efficacy models. Calu-6 lung cancer cells (ATCC) are cultured in growth media (MEM w/ Earle's salts (Invitrogen) with L-glutamine (Gibco™) supplemented with 10% (v/v) heat inactivated FBS (Gibco™), 1×MEM non-essential amino acids (Gibco™), 1×sodium pyruvate (Gibco™)) and HT-29 colon cancer cells (ATCC) are cultured in growth media, (McCoy's 5A medium (Gibco™) supplemented with 10% FBS (Gibco™)) and expanded. Cells are harvested and washed twice with phosphate buffered saline and 5×10^6 cells (HT-29) or 1×10^6 cells (Calu-6) in growth media (without serum) are mixed with equal volume of BD Matrigel™ matrix (BD Bioscience, Franklin, NJ), then injected subcutaneously into the flank of nude mice (CD-1 nu/nu, from Charles River Labs, Wilmington, MA). At about day 16 after implant (150-200 mm^3), gemcitabine is formulated fresh in saline daily and administered to animals by intraperitoneal route at 60 mg/kg dose. […] Tumor response is determined by tumor volume measurement performed twice a week during the course of treatment. Tumor growth inhibition (TGI) is calculated as the percent reduction in mean tumor size of a compound treated group from the mean tumor size of the vehicle-treated control group."}, "Calu-6 lung xenograft": {"tested_on": "Calu-6 lung xenograft", "test": "Single Agent Efficacy Dosing, Calu-6 xenograft", "format": "in vivo, mouse", "details": "Calu-6, 15 mg/kg SC, BID×5 rest 2 days ×3 cycles", "protocol": "The ability of CHK1 inhibitors to effect tumor killing can be determined in vivo using the Calu-6 lung xenograft efficacy model. Calu-6 lung cancer cells (ATCC) are cultured as described above. Cells are harvested and washed twice with phosphate buffered saline and 1×10^6 cells (Calu-6) in growth media (without serum) are mixed with equal volume of BD Matrigel™ matrix (BD Bioscience, Franklin, NJ), then injected subcutaneously into the flank of nude mice (CD-1 nu/nu, from Charles River Labs, Wilmington, MA)."}, "[13]": {"details": "Leiomyosarcoma, age of patients 48-64 years"}}, "note": "Where a name gives a salt, the structure may show the parent alone.", "data": [{"molecule": "COc1cccc(OCCCN)c1-c1cc(Nc2cnc(C#N)cn2)n[nH]1", "note": "[Example 5, 5-(5-(2-(3-Aminopropoxy)-6-methoxyphenyl)-1H-pyrazol-3-ylamino)pyrazine-2-carbonitrile methanesulfonic acid monohydrate]", "values": [{"measurement": "% Regression", "setting": "[1]", "value": "−24", "unit": "%"}, {"measurement": "% T/C", "setting": "[2]; comparator day 18, p-value 0.004", "value": 18, "unit": "%"}, {"measurement": "% Regression", "setting": "[2]; comparator day 36, p-value <0.001", "value": "−65", "unit": "%"}, {"measurement": "% T/C", "setting": "[3]", "value": 292, "unit": "%"}, {"measurement": "% T/C", "setting": "[4]", "value": 67, "unit": "%"}, {"measurement": "% T/C", "setting": "[5]", "value": 44, "unit": "%"}, {"measurement": "% T/C", "setting": "[6]", "value": 57, "unit": "%"}, {"measurement": "Result of Treatment: Partial Response (models)", "setting": "[7]; [13]", "value": "1/5 Partial"}, {"measurement": "Result of Treatment: Stable Disease (models)", "setting": "[7]; [13]", "value": "Response; 1/5"}, {"measurement": "activity in PDX models", "setting": "[7]; PDX models of leiomyosarcoma", "value": "active"}, {"measurement": "% Regression", "setting": "[8]; SJCRH-30, RMS, comparator day 38, p-value <0.001", "value": "−78", "unit": "%"}, {"measurement": "course of the regression upon withdrawal of the drug", "setting": "[8]; SJCRH-30 aRMS model", "value": "immediately reversed"}, {"measurement": "tumor response during treatment", "setting": "[8]; SJCRH-30 aRMS model", "value": "complete regression"}, {"measurement": "response of subsequent regrowth to further treatment", "setting": "[8]; SJCRH-30 aRMS model, 10 mg/kg", "value": "resistant to further treatment"}, {"measurement": "adult sarcoma models sensitive to single agent treatment (models)", "setting": "adult sarcoma models", "value": "10/12"}, {"measurement": "adult sarcoma models sensitive to single agent treatment (percent)", "setting": "adult sarcoma models", "value": 83, "unit": "%"}, {"measurement": "Result of Treatment: Complete Response (models)", "setting": "[9]", "value": "1/3 Complete"}, {"measurement": "Result of Treatment: Stable Disease (models)", "setting": "[9]", "value": "Response; 1/3"}, {"measurement": "% T/C", "setting": "[10]", "value": 6, "unit": "%"}, {"measurement": "Result of Treatment: Stable Disease (models)", "setting": "[11]", "value": "1/4 Stable Disease"}]}, {"molecule": "COc1cccc(OCCCN)c1-c1cc(Nc2cnc(C#N)cn2)n[nH]1", "note": "[Example 2, 5-(5-(2-(3-Aminopropoxy)-6-methoxyphenyl)-1H-pyrazol-3-ylamino)pyrazine-2-carbonitrile dihydrogen chloride salt]", "values": [{"measurement": "increase in tumor growth inhibition over gemcitabine alone", "setting": "[12]; HT-29, combination with gemcitabine", "value": "up to a six-fold increase"}, {"measurement": "anti-tumor activity", "setting": "[12]; HT-29, dosed alone and in combination with gemcitabine 60 mg/kg ip, compound iv +24 hours, Q3Dx4", "value": "excellent dose dependent anti-tumor activity"}, {"measurement": "growth inhibition compared with gemcitabine plus compound combination schedule", "setting": "Calu-6 lung xenograft", "value": "superior growth inhibition"}, {"measurement": "tumor regression", "setting": "Calu-6 lung xenograft", "value": "Complete tumor regression is rapid and durable"}]}]}
